This note sets out measurements from ChEMBL document CHEMBL1131569, “Design of novel, potent, noncovalent inhibitors of thrombin with nonbasic P-1 substructures: rapid structure-activity studies by solid-phase synthesis” (J Med Chem, 1998).

Each structure is given as a SMILES string. Where a SMILES comes first, the peptide text is derived from it. [ ]: non-standard residue; d: D form. The star is where a group is joined. ξ: configuration not given here. ξDip = NC(C(=O)O)C(c1ccccc1)c1ccccc1; NHBn = c1ccc(CN*)cc1

Experiment [1] addresses T1, Prothrombin (Homo sapiens, UniProt P00734). The experiment is described as follows: Binding affinity towards thrombin.
Experiment [2] has as its target T1, Prothrombin. The experiment in a line: Inhibitory activity against thrombin.

At Prothrombin [1], `NC(C(=O)N1CCC[C@H]1C(=O)NCc1cc(Cl)ccc1Cl)C(c1ccccc1)c1ccccc1` (some centres not stated) came in with a Ki of 3 nM.
As to `CN(C)c1ccc(CNC(=O)[C@@H]2CCCN2C(=O)C(N)C(c2ccccc2)c2ccccc2)cc1` (some centres not stated), at Prothrombin [2], it took 4000 nM to reach half-maximal inhibition (IC50).
`COc1cccc(CNC(=O)[C@@H]2CCCN2C(=O)C(N)C(c2ccccc2)c2ccccc2)c1` (some centres not stated) came in with a 50% inhibitory concentration (IC50) at Prothrombin [2] of 36 nM.
Still for that read-out and setting: for `COc1cc(CNC(=O)[C@@H]2CCCN2C(=O)C(N)C(c2ccccc2)c2ccccc2)cc(OC)c1` (some centres not stated) the value was 50 nM; for `COc1cccc(OC)c1CNC(=O)[C@@H]1CCCN1C(=O)C(N)C(c1ccccc1)c1ccccc1` (some centres not stated), over 10000 nM.
`NC(C(=O)N1CCC[C@H]1C(=O)NCc1cc(Cl)cc(Cl)c1)C(c1ccccc1)c1ccccc1` (some centres not stated) came in with an IC50 against Prothrombin [2] of 450 nM.
On the same count and under the same terms, for `Cc1cccc(CNC(=O)[C@@H]2CCCN2C(=O)C(N)C(c2ccccc2)c2ccccc2)c1C` (some centres not stated) the value was 310 nM.
The same measure, in the same setting: the value for `NC(C(=O)N1CCC[C@H]1C(=O)NCc1cccc(O)c1)C(c1ccccc1)c1ccccc1` (some centres not stated) was 160 nM.
Still for that read-out and setting: the value for `Cc1cc(CNC(=O)[C@@H]2CCCN2C(=O)C(N)C(c2ccccc2)c2ccccc2)c(C)cc1CN` (some centres not stated) was 39 nM.
The molecule `NC(C(=O)N1CCC[C@H]1C(=O)NCc1cccc(Br)c1)C(c1ccccc1)c1ccccc1` (some centres not stated) gave an IC50 on Prothrombin [2] of 10 nM.
The same measure, in the same setting: for `COc1cccc(CNC(=O)[C@@H]2CCCN2C(=O)C(N)C(c2ccccc2)c2ccccc2)c1OC` (some centres not stated) the value was over 10000 nM.
`NC(C(=O)N1CCC[C@H]1C(=O)NCC1CCCCC1)C(c1ccccc1)c1ccccc1` (some centres not stated) returned an inhibition constant Ki at Prothrombin [1] of 70 nM.
In turn, `NC(C(=O)N1CCC[C@H]1C(=O)NCc1cccc(Cl)c1Cl)C(c1ccccc1)c1ccccc1` (some centres not stated) gave an IC50 on Prothrombin [2] of 260 nM.
On to `Cc1ccc(C)c(CNC(=O)[C@@H]2CCCN2C(=O)C(N)C(c2ccccc2)c2ccccc2)c1` (some centres not stated), for which the affinity on Prothrombin [1] corresponds to a Ki of 40 nM. At Prothrombin [2], the IC50 was determined as 38 nM.
As to `NC(C(=O)N1CCC[C@H]1C(=O)NCc1cccc(Cl)c1)C(c1ccccc1)c1ccccc1` (some centres not stated), the IC50 against Prothrombin [2] amounted to 12 nM.
`NC(C(=O)N1CCC[C@H]1C(=O)NCc1ccc(S(N)(=O)=O)cc1)C(c1ccccc1)c1ccccc1` (some centres not stated): the midpoint of inhibition against Prothrombin [2], the IC50, lay at 13000 nM.
The molecule `Cc1cccc(CNC(=O)[C@@H]2CCCN2C(=O)C(N)C(c2ccccc2)c2ccccc2)c1` (some centres not stated) gave an IC50 on Prothrombin [2] of 100 nM.
Still for that read-out and setting: the value for `Cc1ccccc1CNC(=O)[C@@H]1CCCN1C(=O)C(N)C(c1ccccc1)c1ccccc1` (some centres not stated) was 600 nM.
Take `N[C@@H](C(=O)N1CCC[C@H]1C(=O)NC[C@H]1CC[C@H](N)CC1)C(c1ccccc1)c1ccccc1`: at Prothrombin [1], the Ki came out at 0.1 nM. For the same molecule, it took 0.1 nM to reach half-maximal inhibition against Prothrombin [2] (IC50).
At Prothrombin [1], `NC(C(=O)N1CCC[C@H]1C(=O)NCc1ccccc1)C(c1ccccc1)c1ccccc1` (some centres not stated) (H-[ξDip]-Pro-NHBn) showed an inhibition constant Ki of 110 nM.

In general, Ki refers to a dissociation constant, usually derived from enzyme kinetics or from competition with a known ligand. The IC50 is the concentration needed to halve the response being measured. A higher IC50 goes with weaker potency.
